Laboratory results taken from PubChem BioAssay AID2060893 (Molecular Pharmacology Branch, DTP, NCI, 2025).

Tested on: K86415-001-R-J1-PDC complex spheroids, viability
Assay: Anticancer human tumor K86415-001-R-J1-PDC patient-derived lung adenocarcinoma cell line growth inhibition [RAS]
Conditions: for IC50: curve of first compound; for viability, T/C: stronger effect = lower value
Text: RAS pathway inhibitors in Combinations in Complex Spheroids
A high-throughput screen of multi-cell type tumor spheroids was designed to identify active combinations of RAS pathway inhibitors and targeted small molecules. Complex spheroids include a stromal component modeled by human endothelial cells (HUVEC) and fibroblasts modeled by human mesenchymal stem cells (MSCs). The concentration ranges selected for each drug and investigational agent were based upon clinically achievable concentrations if the clinical Cmax of the agent was known.
Compounds. The drugs and investigational agents: abemaciclib (NSC768073), cobimetinib (NSC768068), divarasib (GDC6063, NSC841802), docetaxel (NSC628503), GDC-1971 (RLY-1971, NSC841576), gemcitabine (NSC613327), inavolisib (NSC800729), ipatasertib (NSC767898), KB-0742 (NSC834161), MRTX-1133 (NSC836407), osimertinib (NSC779217), RMC-4630 (NSC839698), RMC-6236 (NSC851965), RMC-6291 (NSC852671), Ro-3306 (NSC812927), sapanisertib (NSC764658), SN-38 (NSC673596), staurosporine (NSC755774), SY5609 (NSC837396), and tovorafenib (DAY101, NSC766906), were obtained from the National Cancer Institute (NCI) Developmental Therapeutics Program Chemical Repository. The FDA-approved anticancer drug set is available from the NCI Developmental Therapeutics Program. […] The stock solutions were prepared in dimethyl sulfoxide (DMSO, Sigma-Aldrich, St. Louis, MO, cat. D2650) at 800-fold the tested concentration and stored at -70 degrees C prior to their use. All drugs and investigational agents were tested over a range starting from a high concentration at or near the clinical Cmax and decreasing in half-log increments. If the clinical Cmax for an agent had not been determined, the highest concentration tested was 10 microM.
Cell Culture. All cells were maintained in an incubator at 37 degrees C and 5% CO2 with 95% humidity. The PDC lines were cultured according to standard operating procedures established by the NCI PDMR. All PDCs were thawed and cultured in Matrigel-coated flasks prepared with a working solution of 1X Ham's F-12 nutrient mix, without supplementation (Invitrogen, Waltham, MA, cat. 11765054), 100 U/mL penicillin-streptomycin (Invitrogen, cat. 15140122), and 2.5% Matrigel (Corning Inc., Corning, NY, cat. 354248) for the first three passages. The 362531-283-R-J2-PDC and 782815-120-R-J1-PDC lines were cultured in 6C/Colon 1B media, which includes advanced DMEM/F-12 (Thermo Fisher Scientific, cat. 12634028), 10 mM HEPES (Thermo Fisher Scientific, cat. 15630080), 1X GlutaMAX supplement (Thermo Fisher Scientific, cat. 35050061), 0.1 mg/mL primocin (InvivoGen, San Diego, CA, cat. ant-pm-2), 10% defined fetal bovine serum, heat inactivated (HyClone Laboratories Inc., Logan, UT, cat. SH30070.03HI), 50% L-WRN conditioned media (ATCC, cat. CRL-3276), 1.25 mM N-Acetyl-L-cysteine (Sigma-Aldrich, cat. A9165), 10 mM nicotinamide (Sigma-Aldrich, cat. N0636), 1X B-27 supplement (Thermo Fisher Scientific, cat. 17504044), 1X N-2 supplement (Thermo Fisher Scientific, cat. 17502048), 50 ng/mL human EGF (Thermo Fisher Scientific, cat. PHG0311), and 10 microM Y-27632 dihydrochloride (Tocris Bioscience, cat. 1254). The K12877-001-R-J1-PDC line was cultured in 6I media, which includes all 6C/Colon 1B media plus 10 ng/mL human FGF-10 (PeproTech, cat. 100-26), 1 ng/mL human FGF-2 (PeproTech, cat. 100-18B), 1 µM prostaglandin E2 (Tocris Bioscience, cat. 2296), […] hydrocortisone (Sigma-Aldrich, cat. H4001), and […] bovine insulin (Sigma-Aldrich, cat. I6634). The K86415-001-R-J1-PDC line was cultured in 6D media, which includes all 6C/Colon 1B media components minus the L-WRN conditioned media. The 485176-168-R4-J1-PDC was cultured in PANC media, which includes all 6C/Colon 1B media plus 100 ng/mL human FGF-10 (PeproTech, cat. 100-26), 500 nM SB-431542 (Selleckchem, cat. S1067), and 10 nM gastrin (Tocris Bioscience, cat. 3006). […]

[1] = second compound 0.0316 µM, first compound 0.0316 µM
[2] = second compound 0.0316 µM, first compound 0.1 µM
[3] = second compound 0.0316 µM, first compound 0.316 µM
[4] = second compound 0.0316 µM, first compound 1 µM
[5] = second compound 0.0316 µM, first compound 3.16 µM
[6] = second compound 0.0316 µM, first compound 10 µM
[7] = second compound 0.1 µM, first compound 0.0316 µM
[8] = second compound 0.1 µM, first compound 0.1 µM
[9] = second compound 0.1 µM, first compound 0.316 µM
[10] = second compound 0.1 µM, first compound 1 µM
[11] = second compound 0.1 µM, first compound 3.16 µM
[12] = second compound 0.1 µM, first compound 10 µM
[13] = second compound 0.316 µM, first compound 0.0316 µM
[14] = second compound 0.316 µM, first compound 0.1 µM
[15] = second compound 0.316 µM, first compound 0.316 µM
[16] = second compound 0.316 µM, first compound 1 µM
[17] = second compound 0.316 µM, first compound 3.16 µM
[18] = second compound 0.316 µM, first compound 10 µM
[19] = second compound 1 µM, first compound 0.0316 µM
[20] = second compound 1 µM, first compound 0.1 µM
[21] = second compound 1 µM, first compound 0.316 µM
[22] = second compound 1 µM, first compound 1 µM
[23] = second compound 1 µM, first compound 3.16 µM
[24] = second compound 1 µM, first compound 10 µM
[25] = second compound 3.16 µM, first compound 0.0316 µM
[26] = second compound 3.16 µM, first compound 0.1 µM
[27] = second compound 3.16 µM, first compound 0.316 µM
[28] = second compound 3.16 µM, first compound 1 µM
[29] = second compound 3.16 µM, first compound 3.16 µM
[30] = second compound 3.16 µM, first compound 10 µM
[31] = second compound 10 µM, first compound 0.0316 µM
[32] = second compound 10 µM, first compound 0.1 µM
[33] = second compound 10 µM, first compound 0.316 µM
[34] = second compound 10 µM, first compound 1 µM
[35] = second compound 10 µM, first compound 3.16 µM
[36] = second compound 10 µM, first compound 10 µM
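Note: spheroids exposed to agents for seven days before readout.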

CC(C)NCC(C(=O)N1CCN(c2ncnc3c2C(C)CC3O)CC1)c1ccc(Cl)cc1 (stereo unspecified) + C#Cc1c(F)ccc2cc(O)cc(-c3ncc4c(N5CC6CCC(C5)N6)nc(OCC56CCCN5CC(F)C6)nc4c3F)c12
IC50 (second compound 0.0316 µM): 7490 nM | IC50 (second compound 0.1 µM): 7290 nM | IC50 (second compound 0.316 µM): 7560 nM | IC50 (second compound 1 µM): 4250 nM | IC50 (second compound 3.16 µM): < 31.6 nM | IC50 (second compound 10 µM): < 31.6 nM | viability, T/C [1]: 109% | viability, T/C [2]: 106% | viability, T/C [3]: 106% | viability, T/C [4]: 89.6% | viability, T/C [5]: 72.3% | viability, T/C [6]: 42.6% | viability, T/C [7]: 113% | viability, T/C [8]: 103% | viability, T/C [9]: 113% | viability, T/C [10]: 90.4% | viability, T/C [11]: 68.7% | viability, T/C [12]: 43.1% | viability, T/C [13]: 97% | viability, T/C [14]: 94.1% | viability, T/C [15]: 90.9% | viability, T/C [16]: 84.7% | viability, T/C [17]: 64.4% | viability, T/C [18]: 45.3% | viability, T/C [19]: 74.4% | viability, T/C [20]: 62% | viability, T/C [21]: 56.2% | viability, T/C [22]: 65.1% | viability, T/C [23]: 54.8% | viability, T/C [24]: 39.3% | viability, T/C [25]: 35.2% | viability, T/C [26]: 38.2% | viability, T/C [27]: 26.3% | viability, T/C [28]: 25.8% | viability, T/C [29]: 38.4% | viability, T/C [30]: 25.6% | viability, T/C [31]: 18.7% | viability, T/C [32]: 15.8% | viability, T/C [33]: 16.4% | viability, T/C [34]: 24.7% | viability, T/C [35]: 16.9% | viability, T/C [36]: 5.88%

CC(C)n1nc(-c2ccc3oc(N)nc3c2)c2c(N)ncnc21 + C#Cc1c(F)ccc2cc(O)cc(-c3ncc4c(N5CC6CCC(C5)N6)nc(OCC56CCCN5CC(F)C6)nc4c3F)c12
IC50 (second compound 0.0316 µM): 50 nM | IC50 (second compound 0.1 µM): 48.8 nM | IC50 (second compound 0.316 µM): 57.1 nM | IC50 (second compound 1 µM): 59 nM | IC50 (second compound 3.16 µM): < 0.316 nM | IC50 (second compound 10 µM): < 0.316 nM | viability, T/C (second compound 0.0316 µM, first compound 0.000316 µM): 96.9% | viability, T/C (second compound 0.0316 µM, first compound 0.001 µM): 105% | viability, T/C (second compound 0.0316 µM, first compound 0.00316 µM): 105% | viability, T/C (second compound 0.0316 µM, first compound 0.01 µM): 89.2% | viability, T/C [1]: 63.5% | viability, T/C [2]: 30.3% | viability, T/C (second compound 0.1 µM, first compound 0.000316 µM): 99.6% | viability, T/C (second compound 0.1 µM, first compound 0.001 µM): 120% | viability, T/C (second compound 0.1 µM, first compound 0.00316 µM): 102% | viability, T/C (second compound 0.1 µM, first compound 0.01 µM): 96.5% | viability, T/C [7]: 62.4% | viability, T/C [8]: 29.3% | viability, T/C (second compound 0.316 µM, first compound 0.000316 µM): 95.2% | viability, T/C (second compound 0.316 µM, first compound 0.001 µM): 94.7% | viability, T/C (second compound 0.316 µM, first compound 0.00316 µM): 92.3% | viability, T/C (second compound 0.316 µM, first compound 0.01 µM): 96.5% | viability, T/C [13]: 67.5% | viability, T/C [14]: 33.4% | viability, T/C (second compound 1 µM, first compound 0.000316 µM): 68.8% | viability, T/C (second compound 1 µM, first compound 0.001 µM): 70.6% | viability, T/C (second compound 1 µM, first compound 0.00316 µM): 68.1% | viability, T/C (second compound 1 µM, first compound 0.01 µM): 83% | viability, T/C [19]: 70% | viability, T/C [20]: 32.4% | viability, T/C (second compound 3.16 µM, first compound 0.000316 µM): 35.4% | viability, T/C (second compound 3.16 µM, first compound 0.001 µM): 40.3% | viability, T/C (second compound 3.16 µM, first compound 0.00316 µM): 38.2% | viability, T/C (second compound 3.16 µM, first compound 0.01 µM): 44.5% | viability, T/C [25]: 52.3% | viability, T/C [26]: 28.5% | viability, T/C (second compound 10 µM, first compound 0.000316 µM): 15.9% | viability, T/C (second compound 10 µM, first compound 0.001 µM): 17.6% | viability, T/C (second compound 10 µM, first compound 0.00316 µM): 15.1% | viability, T/C (second compound 10 µM, first compound 0.01 µM): 19.3% | viability, T/C [31]: 19.5% | viability, T/C [32]: 8.39%

CC(Nc1ccc2c(c1)OCCn1cc(N3C(=O)OCC3C(F)F)nc1-2)C(N)=O (stereo unspecified) + C#Cc1c(F)ccc2cc(O)cc(-c3ncc4c(N5CC6CCC(C5)N6)nc(OCC56CCCN5CC(F)C6)nc4c3F)c12
IC50 (second compound 0.0316 µM): 1170 nM | IC50 (second compound 0.1 µM): 1620 nM | IC50 (second compound 0.316 µM): 1190 nM | IC50 (second compound 1 µM): 472 nM | IC50 (second compound 3.16 µM): < 31.6 nM | IC50 (second compound 10 µM): < 31.6 nM | viability, T/C [1]: 84.4% | viability, T/C [2]: 93.5% | viability, T/C [3]: 63.5% | viability, T/C [4]: 50.1% | viability, T/C [5]: 47.6% | viability, T/C [6]: 29.1% | viability, T/C [7]: 90.3% | viability, T/C [8]: 86.2% | viability, T/C [9]: 69.5% | viability, T/C [10]: 56% | viability, T/C [11]: 42.5% | viability, T/C [12]: 28.2% | viability, T/C [13]: 84.9% | viability, T/C [14]: 86.7% | viability, T/C [15]: 65.3% | viability, T/C [16]: 53.2% | viability, T/C [17]: 38.5% | viability, T/C [18]: 28.4% | viability, T/C [19]: 71.6% | viability, T/C [20]: 62% | viability, T/C [21]: 50.9% | viability, T/C [22]: 46.1% | viability, T/C [23]: 34.3% | viability, T/C [24]: 23.2% | viability, T/C [25]: 33.2% | viability, T/C [26]: 26.4% | viability, T/C [27]: 26.5% | viability, T/C [28]: 26.9% | viability, T/C [29]: 22.4% | viability, T/C [30]: 12.8% | viability, T/C [31]: 16.3% | viability, T/C [32]: 15.2% | viability, T/C [33]: 11.7% | viability, T/C [34]: 6.87% | viability, T/C [35]: 3.76% | viability, T/C [36]: 1.56%
